Entries after “also recorded” stand apart in the source; their conditions may differ.
What was measured:
pig-a gene [1] = assay: pig-a mutant erythrocyte frequency measured with and without aerolysin selective lysis, using counting beads (Example 3); format: in vivo, Sprague-Dawley rat; conditions: female rats; ENU 100 mg/kg/day or DMBA 40 mg/kg/day on three days; blood 6 weeks thereafter; vs untreated; FIG. 5
Method: Blood samples are obtained and processed (labeling with fluorochromes) as described above. Specimens were subsequently divided to provide pig-a mutant erythrocyte frequency measurements made with and without the use of aerolysin. To each of the samples, a small volume of high density microsphere suspension is added. Preferably, between about 10^3 to about 10^6 microspheres/specimen are added. Suitable microspheres are commercially available from a number of sources, including Becton Dickinson, Molecular Probes, and Polysciences. After mixing each sample to ensure a homogeneous suspension, a small aliquot of each cell/microsphere solution is transferred to a tube containing a balanced salt solution such that the resulting dilution yields a density of beads and cells which is low enough so that the rate of particles passing through the detection device yields accurate measurements (e.g., less than about 7,000 events per second for a Becton Dickinson FACSCalibur; higher densities may lead to excessive coincidence, which is multiple particles simultaneously at the fluid stream-laser beam intersection). The other (undiluted) specimen is treated with aerolysin to lyse the majority of non-mutant erythrocytes and reticulocytes. Reticulocyte:bead ratios are measured for both diluted and undiluted/aerolysin-treated samples using, e.g., an optical detection system of the type described above. From these ratios, it is possible to calculate the frequency of mutant reticulocytes per 10^6 reticulocytes.
For example, a small volume of a bead stock suspension (10 μl) is added to a suspension of high density cells that have been stained for a mutation frequency determination (1 ml). A small fraction of the cell/bead suspension is then transferred to a tube containing an isotonic solution such that the resulting density of beads and cells is low enough to prevent excessive coincidence. Flow cytometric analysis then allows for determination of the reticulocyte to bead ratio; for example 7,500 reticulocytes and 100 beads would indicate a ratio of 75 reticulocytes per bead. The aerolysin-treated specimen (with a majority of non-mutant erythrocytes and reticulocytes lysed due to aerolysin) is subsequently analyzed. Even while the majority of erythrocytes and reticulocytes have been lysed, it is still possible to analyze 10^6 or more “virtual reticulocytes” by setting the stop mode so that the proportionate number of beads (which are unaffected by aerolysin) have been interrogated. In this example, the stop mode would be set so that data accumulate until 10^6 divided by 75 beads have been acquired, i.e., 13,333 beads. In this manner, it is possible to score the number of mutant reticulocytes per 13,333 beads, or in other words, per 10^6 virtual reticulocytes. […]

pig-a gene [2] = assay: mutant erythrocytes versus mutant reticulocytes, FSC and FL1 thresholding (Example 5); format: in vivo, rat; conditions: rats, 100 mg ENU/kg/day or 40 mg DMBA/kg/day three times in one week; 4 weeks post-exposure; vs untreated; FIG. 7
From the text: In practice, this means the mutation frequency for entire erythrocyte population and a mutation frequency for the reticulocyte fraction can each be efficiently determined by analyzing each stained blood specimen two times: once at high density with FL1 thresholding, and a second time upon dilution using a FSC threshold setting. In this manner it is possible to efficiently interrogate enough cells (e.g. 10^6 reticulocytes and also 10^6 total erythrocytes) for accurate measures of mutant frequency (see FIGS. 4A-B).
For this experiment, rats were untreated, or exposed to 100 mg ENU/kg/day or 40 mg DMBA/kg/day. These exposures were performed three times in one week (M, W, F). Blood was collected from the tail vein of these animals 4 weeks post-exposure. Blood samples were stained according to the present invention. Specifically, high density blood specimens were contacted with anti-CD59-PE to differentially label mutant and non-mutant erythrocytes, and biotinylated anti-CD61 followed by streptavidin-Cy5-PE as a platelet-specific label used to exclude these particles from analysis. After a washing steps to remove unbound antibodies and streptavidin-Cy5-PE, cells were resuspended in a thiazole orange solution (0.1 μg/ml) and allowed to incubate at room temperature for about 30 minutes. Specimens were placed on ice and protected from light until flow cytometric analysis (within about 4 hours). Cells were analyzed at low density with FSC thresholding, and also at high density with FL1 thresholding. As described in Example 2, this provided mutant frequencies in both the total erythrocyte and the reticulocyte populations.

pig-a gene [3] = assay: three-color flow cytometric scoring of pig-a mutant (CD59-negative) erythrocytes in blood of treated rats (Example 1); format: in vivo; conditions: rat, 100 mg/kg/day for three days at 48 hr intervals; blood several weeks after final administration; FIG. 3E
Method: Whole blood specimens (EDTA as anticoagulant) were obtained from the tail vein of vehicle- or ethyl-N-nitrosourea (ENU) treated rats (100 mg/kg/day for three days at 48 hr intervals; blood collected several weeks after the final administration). […] Thereafter, cells were contacted with anti-CD59-PE to differentially label mutant and non-mutant erythrocytes, and biotinylated anti-CD61 followed by streptavidin-Cy5-PE as a platelet-specific label used to exclude these particles from analysis. After washing steps to remove unbound antibodies and unbound streptavidin-Cy5-PE, cells were resuspended in a thiazole orange solution (0.1 μg/ml). Specimens were incubated at room temperature for about 30 minutes, and thereafter were placed on ice until flow cytometric analysis occurred (within about 4 hours).
As shown by FIGS. 3A-E, the labeling procedure was able to successfully discriminate mature erythrocytes and reticulocytes from other cell types, as well as from platelets. Furthermore, it was capable of providing high fluorescent resolution between CD59-negative and CD59-positive erythrocytes, thus facilitating quantification of mutant erythrocyte frequency.
The flow cytometry data acquisition/analysis software (CellQuest v3.3) allowed for configuring alternative gating strategies.

pig-a gene [4] = assay: time course of CD59-negative reticulocyte frequency with FL1 thresholding (Example 4); format: in vivo, Sprague Dawley rat
From the text: In this case, it is possible to set the threshold parameter to the nucleic acid dye-associated fluorescence channel (e.g., FL1 for thiazole orange), as opposed to the more common forward scatter trigger. When set sufficiently high (that is, above the fluorescence intensity of mature erythrocytes), this can restrict analysis to reticulocytes.
Rather, it must be coupled with the preparation of very high density specimens. When these two adjustments are made, much quicker data acquisition rates are achieved. For instance, by eliminating mature erythrocytes with an FL1 threshold and analyzing specimens prepared at very high cell densities (for example 3×10^8/ml), it is possible to reduce the time needed to acquire 10^6 reticulocytes from 80 minutes to about 5 to 15 minutes.
The use of serial blood specimens also facilitated an assessment of the influence of blood harvest time. For this experiment, Sprague Dawley rats were treated with either vehicle or […] on three days (M, W, F). Blood was collected from the tail vein of these animals before treatment and over a 5 week post-exposure period. After two washing steps, high density blood samples were stained according to the present invention. […] Cells were analyzed according to the FL1 thresholding technique described in Example 2.

| SMILES | mutant erythrocyte (CD59-negative) frequency, analysis with aerolysin to enrich for mutants (pig-a gene [1]) | mutant erythrocyte (CD59-negative) frequency, analysis without aerolysin (pig-a gene [1]) | frequency of CD59-negative erythrocytes (total erythrocyte population) (pig-a gene [2]) | frequency of CD59-negative reticulocytes (pig-a gene [2]) | frequency of mutant (CD59-negative) erythrocytes (pig-a gene [3]) | CD59- (mutant) reticulocyte frequency (pig-a gene [4]; rats, 100 mg ENU/mg/day on three days, 5 week post-exposure period, three animals, vs vehicle, FIG. 6) | time of maximal mutant reticulocyte frequency (pig-a gene [4]; two of the three ENU-treated animals (E2 and E3), animal E1 continued to rise through week 5) |
| --- | --- | --- | --- | --- | --- | --- | --- |
| Cc1c2ccccc2c(C)c2c1ccc1ccccc12 [DMBA, 7,12-dimethyl-1,2-benz[a]anthracene] | significant increases | significant increases | greatly elevated | greatly elevated | – | – | – |
| CCN(N=O)C(N)=O [ENU, ethyl-N-nitrosourea] | significant increases | significant increases | greatly elevated | greatly elevated | relatively high frequency of mutant erythrocytes | greatly elevated; also recorded: markedly elevated | 4 week |

Reference: patent US8062860B2, “Kit for measuring in vivo mutation frequency at an endogenous gene locus” (Litron Laboratories, Ltd., priority 2006, dated 2011)
